From USRE47689E1, “Compounds for treating spinal muscular atrophy” (PTC Therapeutics, Inc., priority 2011, dated 2019)

Assays:
[1] = tested on: SMN2 minigene (full length SMN2 minigene mRNA containing SMN2 exon 7); experiment: SMN2 minigene mRNA splicing RT-qPCR assay in cultured cells; assay type: cell-based, human; conditions: Homo sapiens, HEK293-H; HEK293H cells stably transfected with SMN2-A minigene; 24 hours; 7-point concentration curve; 1.5-fold relative to vehicle-treated cells; read-out: EC1.5x for production of full length SMN2 mRNA
Method in brief: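 Lysates → one-step RT-qPCR, minigene-specific primers (0.4 μM final) + GAPDH multiplex, 40 cycles. FL/GAPDH vs DMSO; EC1.5x, star-binned.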

Smn protein = Smn protein assay in cultured cells (SMN HTRF); assay type: cell-based, human; conditions: 48 hours; for EC1.5x (concentration giving 1.5-fold Smn protein increase): SMA Type 1 patient fibroblast cells (GM03813), 7-point concentration curve, SMN HTRF, concentration producing 1.5 times Smn protein vs DMSO vehicle control, read-out: EC1.5x for Smn protein expression; for maximum fold (Fold) increase of Smn protein: SMA patient fibroblast cells, 7-point concentration data, fold increase relative to vehicle control (SMN HTRF)
Method in brief: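 Smn in SMA fibroblast lysates, measured by anti-SMN HTRF after 48 h compound exposure; EC1.5x from fold change over vehicle.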

Row | melting point | SMILES | EC (1.5-fold) [1] | EC1.5x (concentration giving 1.5-fold Smn protein increase) (Smn protein) | maximum fold (Fold) increase of Smn protein (Smn protein)
1 | 296 to 306 °C | Cc1cc(F)c2nc(-c3cc4ccc(N5CCN6CCC[C@@H]6C5)cc4oc3=O)cn2c1 [Compound 611, 3-(8-fluoro-6-methylimidazo[1,2-a]pyridin-2-yl)-7-[(8aR)-hexahydropyrrolo[1,2-a]pyrazin-2(1H)-yl]-2H-chromen-2-one] | 0.3 to 1 µM | 1000 to 3000 nM | **** (fold increase between >1.5 and ≤1.65)
2 | 234 to 235 °C | Cc1cn2cc(-c3cc4ccc(N5CCCN(C)CC5)cc4oc3=O)nc2cn1 [Compound 493, 7-(4-methyl-1,4-diazepan-1-yl)-3-(6-methylimidazo[1,2-a]pyrazin-2-yl)-2H-chromen-2-one] | < 0.1 µM | < 300 nM | ***** (fold increase >1.65)
3 | 228 to 231 °C | Cc1ccn2nc(-c3cc4ccc(N5CCNCC5)cc4oc3=O)cc2c1 [Compound 302, 3-(5-methylpyrazolo[1,5-a]pyridin-2-yl)-7-(piperazin-1-yl)-2H-chromen-2-one] | 0.1 to 0.3 µM | 300 to 1000 nM | *** (fold increase between >1.35 and ≤1.5)
4 | 279 to 281 °C | Cc1ccn2nc(-c3cc4ccc(N5CCN(C)CC5)cc4oc3=O)cc2c1 [Compound 303, 7-(4-methylpiperazin-1-yl)-3-(5-methylpyrazolo[1,5-a]pyridin-2-yl)-2H-chromen-2-one] | 0.3 to 1 µM | 3000 to 10000 nM | *** (fold increase between >1.35 and ≤1.5)
5 | 219 to 229 °C | Cc1cc(C)c2nc(-c3cc4ccc(N5CCNCC5)cc4oc3=O)cn2c1 [Compound 260, 3-(6,8-dimethylimidazo[1,2-a]pyridin-2-yl)-7-(piperazin-1-yl)-2H-chromen-2-one] | 0.3 to 1 µM | – | * (maximum fold increase of ≤1.2)
6 | 229 to 232 °C | CN1CCCN(c2ccc3cc(-c4cn5cc(Cl)sc5n4)c(=O)oc3c2)CC1 [Compound 479, 3-(2-chloroimidazo[2,1-b][1,3]thiazol-6-yl)-7-(4-methyl-1,4-diazepan-1-yl)-2H-chromen-2-one] | 0.3 to 1 µM | – | * (maximum fold increase of ≤1.2)
7 | 252 to 262 °C | Cc1ccn2cc(-c3cc4ccc(N5CCN(C)CC5)cc4oc3=O)nc2c1 [Compound 134, 3-(7-methylimidazo[1,2-a]pyridin-2-yl)-7-(4-methylpiperazin-1-yl)-2H-chromen-2-one] | 0.3 to 1 µM | 1000 to 3000 nM | *** (fold increase between >1.35 and ≤1.5)

More lines, now with the values behind:

Row | SMILES | melting point | EC (1.5-fold) [1] | EC1.5x (concentration giving 1.5-fold Smn protein increase) (Smn protein) | maximum fold (Fold) increase of Smn protein (Smn protein)
8 | O=c1oc2cc(N3CCNCC3)cc(F)c2cc1-c1nc2ccccc2[nH]1 [Compound 375, 3-(1H-benzimidazol-2-yl)-5-fluoro-7-(piperazin-1-yl)-2H-chromen-2-one] | 245 to 250 °C | 0.3 to 1 µM | – | ** (fold increase between >1.2 and ≤1.35)
9 | Cc1cc(F)c2nc(-c3cc4ccc(N[C@H]5CCNC5)cc4oc3=O)cn2c1 [Compound 582, 3-(8-fluoro-6-methylimidazo[1,2-a]pyridin-2-yl)-7-[(3S)-pyrrolidin-3-ylamino]-2H-chromen-2-one] | 230 to 240 °C | 0.3 to 1 µM | – | ** (fold increase between >1.2 and ≤1.35)
10 | COc1cccc(-c2cc3ccc(N4C[C@@H](C)N[C@@H](C)C4)cc3oc2=O)n1 [Compound 315, 7-[(3R,5S)-3,5-dimethylpiperazin-1-yl]-3-(6-methoxypyridin-2-yl)-2H-chromen-2-one] | 175 to 177 °C | 0.3 to 1 µM | – | * (maximum fold increase of ≤1.2)
11 | CCN(CC)C1CCN(c2ccc3cc(-c4cn5cc(C)nc(C)c5n4)c(=O)oc3c2)CC1 [Compound 922, 7-[4-(diethylamino)piperidin-1-yl]-3-(6,8-dimethylimidazo[1,2-a]pyrazin-2-yl)-2H-chromen-2-one] | 205 to 207 °C | < 0.1 µM | 300 to 1000 nM | *** (fold increase between >1.35 and ≤1.5)
12 | Cc1cn2cc(-c3cc4ccc(C5CCN(CCO)CC5)cc4oc3=O)nc2c(C)n1 [Compound 750, 3-(6,8-dimethylimidazo[1,2-a]pyrazin-2-yl)-7-[1-(2-hydroxyethyl)piperidin-4-yl]-2H-chromen-2-one] | 207 to 212 °C | < 0.1 µM | < 300 nM | ***** (fold increase >1.65)
13 | CCN1CCC(c2ccc3cc(-c4cnc5nc(C)cn5c4)c(=O)oc3c2)CC1 [Compound 836, 7-(1-ethylpiperidin-4-yl)-3-(2-methylimidazo[1,2-a]pyrimidin-6-yl)-2H-chromen-2-one] | 288 to 290 °C | 0.3 to 1 µM | 300 to 1000 nM | ***** (fold increase >1.65)
14 | C[C@H]1CN(c2ccc3cc(-c4ccc(N(C)C)nc4)c(=O)oc3c2)CCN1 [Compound 548, 3-[6-(dimethylamino)pyridin-3-yl]-7-[(3S)-3-methylpiperazin-1-yl]-2H-chromen-2-one] | 194 to 196 °C | 3 to 30 µM | – | * (maximum fold increase of ≤1.2)
15 | Cc1cn2cc(-c3cc4ccc(N5CCN6CCC[C@@H]6C5)cc4oc3=O)nc2cn1 [Compound 625, 7-[(8aR)-hexahydropyrrolo[1,2-a]pyrazin-2(1H)-yl]-3-(6-methylimidazo[1,2-a]pyrazin-2-yl)-2H-chromen-2-one] | 240 to 245 °C | < 0.1 µM | 300 to 1000 nM | *** (fold increase between >1.35 and ≤1.5)
16 | Cc1cn2cc(-c3cc4ccc(N5CCN(CCF)[C@@H](C)C5)cc4oc3=O)nc2c(C)n1 [Compound 894, 3-(6,8-dimethylimidazo[1,2-a]pyrazin-2-yl)-7-[(3S)-4-(2-fluoroethyl)-3-methylpiperazin-1-yl]-2H-chromen-2-one] | 192 to 195 °C | < 0.1 µM | 300 to 1000 nM | ***** (fold increase >1.65)
17 | CCN(CCO)CCOc1ccc2cc(-c3cn4cc(C)nc(C)c4n3)c(=O)oc2c1 [Compound 938, 3-(6,8-dimethylimidazo[1,2-a]pyrazin-2-yl)-7-{2-[ethyl(2-hydroxyethyl)amino]ethoxy}-2H-chromen-2-one] | 165 to 168 °C | < 0.1 µM | < 300 nM | ***** (fold increase >1.65)
18 | Cc1cn2cc(-c3cc4ccc(OCCNC(C)(C)CO)cc4oc3=O)nc2c(C)n1 [Compound 955, 3-(6,8-dimethylimidazo[1,2-a]pyrazin-2-yl)-7-{2-[(1-hydroxy-2-methylpropan-2-yl)amino]ethoxy}-2H-chromen-2-one] | 187 to 191 °C | 0.1 to 0.3 µM | – | *** (fold increase between >1.35 and ≤1.5)
